Test results taken from patent publication US6534519B1, “Phenanthridine-N-oxides with PDE-IV inhibiting activity” (Altana Pharma AG, priority 1999, dated 2003).

Legend:
PDE4 = assay: Inhibition of PDE4 activity (method of Bauer and Schwabe, microtiter plates); type: biochemical; conditions: inhibitory concentration as −log IC50 (mol/1)
From the text: The activity test can be carried out, for example according to the method of Bauer and Schwabe. For this, the method is adapted to microtiter plates (Naunyn-Schmiedeberg's Arch. Pharmacol. 1980, 311, 193-198). The PDE reaction takes place in the first step here. In a second step, the resulting 5′-nucleotide is cleaved by a 5′-nucloetidase of the snake venom of Crotalus atrox to the uncharged nucleoside. In the third step, the nucleoside is separated from the remaining charged substrate on ion-exchange columns. The columns are eluted directly into minivials, into which 2 ml of scintillator fluid are additionally added for counting, using 2 ml of 30 mM ammonium formate (pH 6.0).
The inhibitory values determined for the compounds according to the invention [inhibitory concentration as −log IC50 (mol/1)] follow from the following Table A, in which the numbers of the compounds correspond to the numbers of the examples.

melting point: 143.5 to 146 °C
SMILES: CCn1nnc(-c2ccc(C3=[N+]([O-])C4CCCCC4c4cc(OC)c(OC)cc43)cc2)n1 (single isomer, unassigned; (-)) [Compound 1, (−)-cis-6-[4-(2-Ethyl-2H-tetrazol-5-yl)phenyl]-8,9-dimethoxy-1,2,3,4,4a,10b-hexahydrophen-anthridine-N-5-oxide]
−log IC50 (PDE4): 6.29
